Laboratory results: patent publication US20250152564A1, “PROPYLENE KETONE-CONTAINING BIOINHIBITOR, PREPARATION METHOD THEREFOR, AND USE THEREOF” (SHANGHAI HANSOH BIOMEDICAL CO., LTD., priority 2022, published 2025)

Tests used:
FGFR2 V564F = FGFR2 V564F (Homo sapiens (Human), UniProt P21802, V564F); assay: TR-FRET kinase inhibition assay, FGFR2 V564F; type: biochemical; settings: ATP Km concentration (20 μM)
Protocol: (§1) To measure the IC50 values of the compounds against FGFR1, FGFR2, FGFR3, FGFR4, and FGFR2 V564F at ATP Km concentrations by TR-FRET method.
(§2) TR-FRET (time-resolved fluorescence resonance energy transfer) method was used to detect the inhibitory activity of the compounds on FGFR1, FGFR2, FGFR3, FGFR4, and FGFR2 V564F kinase region fragments. The highest detection concentration of the compounds in 5 kinase experiments was 1000 nM, which was diluted in 3 folds, with a total of 11 concentrations (1000 nM to 0.017 nM). A kinase buffer (50 mM HEPES pH 7.5, 1 mM EGTA, 10 mM MgCl2, 2 mM DTT, and 0.01% Tween-20) was used to prepare 4× enzyme solution, 4× compound solutions diluted in gradient, and a 2×ATP/Peptide substrate solution. To a 384-well plate, 2.5 μL of enzyme solution and 2.5 μL of diluted […] compound solution were added, and 5 μL of 2×ATP/Peptide substrate solution was then added. After reacting at room temperature for 60 minutes for FGFR1, FGFR2, FGFR3, and FGFR2 V564F kinases, and 120 minutes for FGFR4 kinase, 10 μL of a 2× termination and detection mixed liquid prepared with 1×LANCE detection buffer with an EDTA concentration of 20 mM and a Europium-anti-phosphotyrosine (PT66) concentration of 2 nM was added to each well of the plate. After reacting at room temperature for 60 minutes for FGFR1, FGFR2, FGFR3, and FGFR4, and 30 minutes for FGFR2 V564F, the fluorescence signal value in each well of the plate was measured by a microplate reader.
(§3) 1) Inhibition rate (%): Calculation was performed on the raw data (665 nm/620 nm reading ratio) according to the following formula to obtain the inhibition rate. Inhibition rate %=[(mean value in positive control well−value in sample well)/(mean value in positive control well−mean value in negative control well)]×100, wherein the positive control well was a reaction well without a compound […], and the negative control well was a reaction wells without an enzyme.
(§4) 2) Curve fitting: Log(inhibitor) vs. response—Variable slope (four parameters) in GraphPad Prism 6 was used for fitting equation analysis of the compound concentration and the corresponding inhibition rate, and the curve was fitted to obtain the IC50 values of the compounds.

[1] = tested on: BaF3 FGFR2-BICC1 V564F cells; assay: CellTiter-Glo cell proliferation inhibition, BaF3 FGFR2-BICC1 V564F; type: cell-based; settings: Mus musculus, 72 h, read-out: BaF3 FGFR2-BICC1 V564F inhibitory activity IC50
Protocol: To evaluate inhibitory effects of the compounds on the proliferation of NCI-H716, SNU-16 and BaF3-FGFR2-BICC1 V564F cells by cell proliferation inhibition experiments.
CellTiter-Glo method was used to detect inhibitory effects of the compounds on the proliferation of NCI-H716, SNU-16 and BaF3 FGFR2-BICC1 V564F cells. The highest detection concentration of the compounds was 1000 nM, which was diluted in 3 folds, with a total of 9 concentrations (1000 nM to 0.15 nM). After the cells were plated at an appropriate density, compounds were added the next day and incubated for 72 h before detection using the […] detection kit.
as §3, with “(%):” for “(%): Calculation was performed on the raw data (665 nm/620 nm reading ratio) according to the following formula to obtain the inhibition rate.”
as §4

FGFR1 = FGFR1 (Homo sapiens (Human), UniProt P11362); assay: TR-FRET kinase inhibition assay, FGFR1; type: biochemical; settings: ATP Km concentration (30 μM)
Protocol: as §1, §2, §3, §4

FGFR2 = FGFR2 (Homo sapiens (Human), UniProt P21802); assay: TR-FRET kinase inhibition assay, FGFR2; type: biochemical; settings: ATP Km concentration (30 μM)
Protocol: as §1, §2, §3, §4

[2] = Pharmacokinetic experiment in SD rats after oral administration; type: in vivo; settings: 5 mg/kg, plasma
Protocol: To study the pharmacokinetic behavior of the compounds of the present invention in the rat body (plasma) after oral administration at a dose of 5 mg/kg using SD rats as test animals.
3 SD rats/group, male, from Shanghai Jiesijie Experimental Animal Co., Ltd., animal production license number (SCXK (Shanghai) 2013-0006 N0.311620400001794).
PO, 10% solutol HS15-0.5% CMC-Na was dissolved by ultrasound and prepared into a clear solution or homogeneous suspension.
3 SD rats/group, male; p.o. respectively at a dose of 5 mg/kg and an administration volume of 10 mL/kg after the […] were fasted overnight.
After oral administration to rats, at 0.25, 0.5, 1, 2, 4, 6, 8 and 24 hours, 0.2 mL of blood was collected from the jugular vein, placed in an EDTA-K2 test tube, centrifuged at 6000 rpm for 6 min at 4° C. to separate the plasma, which was stored at −80° C.
1) 100 μL of acetonitrile was added to 20 μL of plasma sample for pelleting, and it was mixed and centrifuged at 3500×g for 5-20 min.
2) The treated supernatant solution was taken and subjected to LC/MS/MS to analyze the concentrations of the test compounds. LC/MS/MS analysis instrument: AB Sciex API 4000 Qtrap.
• Liquid phase conditions: Shimadzu LC-20AD pump • Chromatographic column: Waters Xbridge C18 5 μm, 4.6×50 mm mobile phase: liquid A was 0.1% aqueous formic acid solution, and liquid B was methanol • Flow rate: 1.0 mL/min • Elution time: 0-4.0 min, the eluent was as follows: […]

FGFR2, sequence (P21802 481-770): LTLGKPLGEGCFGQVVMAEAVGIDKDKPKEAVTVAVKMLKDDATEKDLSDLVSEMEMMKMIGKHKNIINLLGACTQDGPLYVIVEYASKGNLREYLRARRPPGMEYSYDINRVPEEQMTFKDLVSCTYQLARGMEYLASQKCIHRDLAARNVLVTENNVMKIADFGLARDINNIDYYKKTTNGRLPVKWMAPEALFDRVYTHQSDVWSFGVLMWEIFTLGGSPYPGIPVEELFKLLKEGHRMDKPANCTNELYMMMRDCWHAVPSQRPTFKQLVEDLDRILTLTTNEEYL
FGFR2 V564F, sequence (P21802 481-770 V564F): as the sequence (P21802 481-770) above, with V84F counted along it
FGFR1, sequence (P11362 478-767): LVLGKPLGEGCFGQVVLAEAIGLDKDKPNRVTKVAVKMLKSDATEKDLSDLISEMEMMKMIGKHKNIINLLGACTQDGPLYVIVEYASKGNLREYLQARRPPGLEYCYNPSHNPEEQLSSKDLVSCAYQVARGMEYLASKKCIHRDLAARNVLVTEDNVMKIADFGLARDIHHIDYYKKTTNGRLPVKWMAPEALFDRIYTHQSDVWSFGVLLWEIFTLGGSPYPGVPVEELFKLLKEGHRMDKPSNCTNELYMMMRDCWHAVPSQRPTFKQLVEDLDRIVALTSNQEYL

Work on `C=CC(=O)N1CC[C@H](n2nc(C#Cc3ccc4oc(C5CC5)nc4c3)c3c(N)ncnc32)C1` [B, reference compound] yielded an IC50 (FGFR2 V564F) of 18.4 nM and an IC50 [1] of 11.5 nM.
Work on `C=CC(=O)N1CC[C@H](n2nc(C#Cc3ccc4ccnn4c3)c3c(N)ncc(C(=O)C4CC4)c32)C1` [Example 73, (S)-1-(3-(4-amino-7-(cyclopropanecarbonyl)-3-(pyrazolo[1,5-a]pyridine-6-ethynylene)-1H-pyrazolo[4,3-c]pyridin-1-yl)pyrrolidine-1-methyl)prop-2-en-1-one] yielded an IC50 (FGFR1) of 2.3 nM, an IC50 (FGFR2) of 0.7 nM and an IC50 (FGFR2 V564F) of 0.9 nM.
`C=CC(=O)N1CC[C@H](n2nc(C#Cc3cc4ncn(C5CC5)c4cc3F)c3c(N)ncc(C4CC4)c32)C1` [Example 52, (S)-1-(3-(4-amino-7-cyclopropyl-3-((1-cyclopropyl-6-fluoro-1H-benzo[d]imidazol-5-yl)alkynyl)-1H-pyrazolo[4,3-c]pyridin-1-yl)pyrrolidin-1-yl)prop-2-en-1-one] showed an IC50 (FGFR2 V564F) of 1.8 nM.
In the case of `C=CC(=O)N1CC[C@H](n2nc(C#Cc3ccc4c(c3)ncn4CC)c3c(N)ncc(C(=O)C(C)C)c32)C1` [Example 59], the IC50 (FGFR2) is reported as 3.4 nM, the IC50 (FGFR2 V564F) is reported as 1.1 nM and the IC50 [1] is reported as 4 nM.
Compound `C=CC(=O)N1CC[C@H](n2nc(C#Cc3ccc4c(c3)ncn4CC)c3c(N)ncc(C(C)=O)c32)C1` [Example 56, (S)-1-(3-(7-acetyl-4-amino-3-((1-ethyl-1H-benzo[d]imidazol-5-yl)ethynyl)-1H-pyrazolo[4,3-c]pyridin-1-yl)pyrrolidine-1-methyl)prop-2-en-1-one] has an IC50 (FGFR2) of 1.8 nM, an IC50 (FGFR2 V564F) of 0.7 nM and an IC50 [1] of 3.5 nM.
Compound `C=CC(=O)N1CC[C@H](n2nc(C#Cc3cc4ncn(C5CC5)c4cc3Cl)c3c(N)ncc(-c4ccn(C)n4)c32)C1` [Example 43, (S)-1-(3-(4-amino-3-((6-chloro-1-cyclopropyl-1H-benzo[d]imidazol-5-yl)ethynyl)-7-(1-methyl-1H-pyrazol-3-yl)-1H-pyrazolo[4,3-c]pyridin-1-yl)pyrrolidin-1-yl)prop-2-en-1-one] has an IC50 (FGFR2 V564F) of 1.1 nM.
For `C=CC(=O)N1CC[C@H](n2nc(C#Cc3cc4ncn(C5CC5)c4cc3F)c3c(N)ncc(C(=O)CC)c32)C1` [Example 48, (S)-1-(3-(4-amino-3-((1-cyclopropyl-6-fluoro-1H-benzo[d]imidazol-5-yl)ethynyl)-7-propionyl-1H-pyrazolo[4,3-c]pyridin-1-yl)pyrrolidin-1-yl)prop-2-en-1-one], the IC50 (FGFR2) was 1.7 nM, the IC50 (FGFR2 V564F) was 0.8 nM and the IC50 [1] was 1.4 nM. For the same compound, the AUC(0-t) ([2]; male, Sprague-Dawley (SD), rat, po, read-out: Area under the curve AUC0-t) was 4120 ng·h/mL, the AUC(0-inf) ([2]; male, Sprague-Dawley (SD), rat, po, read-out: Area under the curve AUC0-∞) was 4150 ng·h/mL and the half-life ([2]; male, Sprague-Dawley (SD), rat, po, read-out: Half-life t1/2 (converted)) was 3.9 h. For the same compound, the MRT ([2]; male, Sprague-Dawley (SD), rat, po, read-out: Mean residence time MRT) was 4.2 h, the Cmax ([2]; male, Sprague-Dawley (SD), rat, po, read-out: Plasma concentration Cmax) was 795 ng/mL and the Time to peak tmax ([2]; p.o.) was 2 h.
Work on `C=CC(=O)N1CC[C@H](n2nc(C#Cc3cc4ncn(CC)c4cc3F)c3c(N)ncc(-c4cscn4)c32)C1` [Example 62, (S)-1-(3-(4-amino-3-((1-ethyl-6-fluoro-1H-benzo[d]imidazol-5-yl)ethynyl)-7-(thiazol-4-yl)-1H-pyrazolo[4,3-c]pyridin-1-yl)pyrrolidin-1-yl)prop-2-en-1-one] yielded an IC50 (FGFR2) of 2.4 nM and an IC50 (FGFR2 V564F) of 1.2 nM.
`C=CC(=O)N1CC[C@H](n2nc(C#Cc3cc4ncn(C5CC5)c4cc3F)c3c(N)ncc(C(=O)C(C)C)c32)C1` [Example 50] showed an IC50 (FGFR2) of 2.6 nM, an IC50 (FGFR2 V564F) of 1 nM and an IC50 [1] of 2.1 nM.
In the case of `C=CC(=O)N1CC[C@H](n2nc(C#Cc3ccc4c(c3)ncn4C3CC3)c3c(N)ncc(C(=O)C(C)C)c32)C1` [Example 40], the IC50 (FGFR2 V564F) is reported as 1.9 nM.
`C=CC(=O)N1CC[C@H](n2nc(C#Cc3cc4ncn(C)c4cc3F)c3c(N)ncc(-c4cscn4)c32)C1` [Example 14, 1-[(3S)-3-[4-amino-3-[2-(6-fluoro-1-methyl-benzo[d]imidazol-5-yl)ethynyl]-7-thiazol-4-yl-pyrazolo[4,3-c]pyridin-1-yl]pyrrolidin-1-yl]-2-propen-1-one] gave an IC50 (FGFR2) of 2.4 nM and an IC50 (FGFR2 V564F) of 1.3 nM.
With `C=CC(=O)N1CC[C@H](n2nc(C#Cc3ccc4c(c3)ncn4C3CC3)c3c(N)ncc(-c4ccn(C)n4)c32)C1` [Example 42, (S)-1-(3-(4-amino-3-((1-cyclopropyl-1H-benzo[d]imidazol-5-yl)ethynyl)-7-(1-methyl-1H-pyrazol-3-yl)-1H-pyrazolo[4,3-c]pyridin-1-yl)pyrrolidine-1-methyl)prop-2-en-1-one] the IC50 (FGFR2 V564F) was 3.9 nM.
Work on `C=CC(=O)N1CC[C@H](n2nc(C#Cc3cc4ncn(C5CC5)c4cc3Cl)c3c(N)ncc(C(=O)C(C)C)c32)C1` [Example 47] yielded an IC50 (FGFR2 V564F) of 1 nM and an IC50 [1] of 0.5 nM.
In the case of `C=CC(=O)N1CC[C@H](n2nc(C#Cc3cc4ncn(C)c4cc3F)c3c(N)nccc32)C1` [A, reference compound], the IC50 (FGFR2) is reported as 12.8 nM, the IC50 (FGFR2 V564F) is reported as 6.1 nM and the IC50 [1] is reported as 7.4 nM.
In the case of `C=CC(=O)N1CC[C@H](n2nc(C#Cc3cc4ncn(C5CC5)c4cc3F)c3c(N)ncc(C)c32)C1` [Example 51, (S)-1-(3-(4-amino-3-((1-cyclopropyl-6-fluoro-1H-benzo[d]imidazol-5-yl)ethynyl)-7-methyl-1H-pyrazolo[4,3-c]pyridin-1-yl)pyrrolidin-1-yl)prop-2-en-1-one], the IC50 (FGFR2 V564F) is reported as 3.3 nM.
In the case of `C=CC(=O)N1CC[C@H](n2nc(C#Cc3ccc4c(c3)nc(C)n4C3CC3)c3c(N)ncc(C(C)=O)c32)C1` [Example 53, (S)-1-(3-(7-acetyl-4-amino-3-((1-cyclopropyl-2-methyl-1H-benzo[d]imidazol-5-yl)ethynyl)-1H-pyrazolo[4,3-c]pyridin-1-yl)pyrrolidin-1-yl)prop-2-en-1-one], the IC50 (FGFR2) is reported as 3.5 nM, the IC50 (FGFR2 V564F) is reported as 1.9 nM and the IC50 [1] is reported as 4.9 nM.
With `C=CC(=O)N1CC[C@H](n2nc(C#Cc3cc4ncn(C)c4cc3F)c3c(N)ncc(C4CC4)c32)C1` [Example 20, (S)-1-(3-(4-amino-7-cyclopropyl-3-((6-fluoro-1-methyl-1H-benzo[d]imidazol-5-yl)ethynyl)-1H-pyrazolo[4,3-c]pyridin-1-yl)pyrrolidin-1-yl)prop-2-en-1-one] the IC50 (FGFR2 V564F) was 2.8 nM.
In the case of `C=CC(=O)N1CC[C@H](n2nc(C#Cc3cc4ncn(C)c4cc3Cl)c3c(N)ncc(C(C)=O)c32)C1` [Example 67, (S)-1-(3-(7-acetyl-4-amino-3-((6-chloro-1-methyl-1H-benzo[d]imidazol-5-yl)ethynyl)-1H-pyrazolo[4,3-c]pyridin-1-yl)pyrrolidin-1-yl)prop-2-en-1-one], the IC50 (FGFR2 V564F) is reported as 1.6 nM and the IC50 [1] is reported as 1.6 nM.
